Data reported in patent US20050267016A1, “CD-10 activated prodrug compounds” (priority 2001, published 2005).
Where “and” joins values, the source holds several entries; their conditions need not be identical. Equal entries are not always repeated. Where two headings read alike, the source gives them in different places. Marks after values point to notes of the source that are not given here.

Assays:
[1] = tested on: CD10 transfected CHO cells, Clone #5; assay: 3H thymidine proliferation assay, CD10 transfected CHO Clone #5; settings: Cricetulus griseus, read-out: IC50 Clone #5
Protocol: (§8) The fully assembled coding region was sub-cloned into a mammalian expression vector, downstream of the hCMV-MIE promoter. DNA sequence analysis confirmed sequence identity with the coding sequence of human CD10 (Genbank accession number Y00811). The expression plasmid was linearized and stably transfected into CHO—S cells. CD10 expressing transfectant clones were selected under 500 ug/mL of hygromycin and screened by flow cytometry for cell-surface CD10 expression using a commercially available anti-CD10-FITC antibody.

[2] = tested on: CD10 transfected CHO cells, DB4; assay: 3H thymidine proliferation assay, CD10 transfected CHO DB4
Protocol: as §8

[3] = tested on: colorectal carcinoma LS174t xenograft; settings: tolerated dose 3 mg/kg, same dosing regimen; cited from earlier work
[4] = tested on: CD10 transfected CHO cells, Clone #7; assay: 3H thymidine proliferation assay, CD10 transfected CHO Clone #7
Protocol: as §8

[5] = tested on: prostate carcinoma LNCaP tumors; settings: for mean tumor weight of all mice when terminated: calculated, not shown; for Cancer Endpt.: tumor 1.5 g
Protocol: (§1) The mice were weighed and tumors were measured (by caliper) at least once a week prior to start of dosing (Day 0), then twice a week during the study. Immediately before the start of dosing (Study Day −2 to Day 0), mice were randomized to various groups based on the weight of the tumors. […] Mice were euthanized after the tumors reached a cutoff weight of 1.5 g (cancer endpoint), or when mice suffered over 25% weight loss (toxic endpoint). Studies were terminated at Day 60.

[6] = Repeat-dose MTD in tumor bearing mice; format: in vivo; settings: mouse, in vivo
Protocol: (§2) In repeat-dose studies in tumor bearing mice, groups of ten mice were dosed with various amounts of prodrug for a total of five doses at either five day or 1 week intervals. […] Thus, the conclusion remains the same in that the prodrugs permit a much greater amount of therapeutic agent to be delivered to the body as a whole and to the vicinity of the target cell.
(§3) As would be expected, when a dose similar to the single-dose MTD (75 mg/kg) (See Example 16) was administered as a repeat-dose it was less well tolerated. […] All treated animals lost weight progressively throughout the study, while the vehicle control group gained up to 12% of the mean initial body weight. (FIG. 20). Two treated animals in the high dose group were terminated due to signs of toxicity, with body weight loss of greater that 20% of their initial weight. […] Thus cumulative toxicity resulted from repeat-dosing at these relatively high dose-levels.

[7] = tested on: LS174t tumor bearing mice; assay: Repeat-dose MTD in tumor bearing mice; format: in vivo
Protocol: as §2, §3

Parental CHO cells = assay: 3H thymidine proliferation assay, parental CHO; format: cell-based, Chinese Hamster; settings: for IC50: Cricetulus griseus; for Ratio Suc-β-Ala-Ile-Ala-Leu/Dox: Parental CHO, ratio of IC50
[8] = tested on: LNCaP human prostate carcinoma xenografts
Protocol: as §1, with “LNCaP human prostate carcinoma cells express high levels of CD10 on the surface. Suc-βAla-Leu-Ala-Leu-Dox and Suc-Leu-Ala-Gly-Dox were tested at a single dose level Q7Dx5. […] The” for “The”

[9] = tested on: HL-60 xenograft homogenate; assay: Hydrolysis by mouse tumor xenograft homogenates; format: biochemical; settings: 12.5 μg/mL, up to 1 hr, 37° C.
Protocol: (§4) Soluble protein was measured and results are reported as protein specific activity. The results, illustrated in FIG. 13, indicate the LNCaP cells contain the highest Suc-Ile-Ala-Leu-Dox hydrolyzing activity while HL-60 cells show no Suc-Ile-Ala-Leu-Dox hydrolyzing activity.

[10] = tested on: LNCaP xenograft homogenate; assay: Hydrolysis by mouse tumor xenograft homogenates; format: biochemical; settings: 12.5 μg/mL, up to 1 hr, 37° C.
Protocol: as §4

[11] = Single dose Maximum Tolerated Dose (MTD) study, 28 days; format: in vivo, mice; settings: mouse, in vivo; intravenous bolus, normal mice, 28 days
Protocol: (§5) The mice were observed daily for 28 days and body weights measured twice weekly.
as §5
(§6) In the single dose Maximum Tolerated Dose (MTD) studies, groups of normal mice were administered intravenous bolus doses of the prodrug. The mice were observed daily for 28 days and body weights measured twice weekly. The MTD was estimated to be equal to the highest dose that produced no death in mice after 28 days.

normal mice = assay: as above; format: in vivo; settings: for single-dose MTD, fold higher than doxorubicin alone: 28 days
Protocol: as §5, §5, §6

PC-3 cell homogenate = assay: Hydrolysis by cultured human cell homogenates; format: biochemical; settings: 12.5 μg/mL, up to 1 hr, 37° C., pH 7.2
Protocol: (§7) In addition, 1 μM phosphoramidon, a CD10 inhibitor was included in incubations with LNCaP cell homogenate. To estimate specific activity protein content was estimated in the soluble portion of the homogenates. Results expressed as protein specific activity (FIG. 12) indicate that LNCaP cells which are known to contain CD10 show the greatest Suc-Ile-Ala-Leu-Dox hydrolyzing activity.

LNCaP cell homogenate = assay: Hydrolysis by cultured human cell homogenates; format: biochemical
Protocol: as §7

[12] = mouse, in vivo, iv, 100 umol/kg
Protocol: Plasma was obtained from three individual animals in each group at 5 minutes, 1, 2, 4, or 6 hr.

[13] = Dose 75 mg/kg (Table 19), Q7DX5

For COc1cccc2c1C(=O)c1c(O)c3c(c(O)c1C2=O)C[C@@](O)(C(=O)CO)C[C@@H]3O[C@H]1C[C@H](N)[C@H](O)[C@H](C)O1 [Doxorubicin, reference compound], the IC50 [1] is listed as 810 nM, the IC50 ([2]; Cricetulus griseus, CHO, read-out: IC50 DB4) is listed as 310 nM and the “efficacy in LS174t model” value [3] is listed as “historically ineffective”. For the same compound, the IC50 ([4]; Cricetulus griseus, CHO, read-out: IC50 Clone #7) was 640 nM, the “mean tumor weight of all mice when terminated” value ([5]; 5 mg/kg Q7DX5) was 967 mg and the “Cancer Endpt.” value ([5]; 5 mg/kg Q7DX5) was 0. For the same compound, the “% Tumor Growth Inhibition D14” value ([5]; 5 mg/kg i.v. Q7DX5) was “D14: 32 ± 16%”, the “Survivor (day 60)” value ([5]; 5 mg/kg i.v. Q7DX5) was 1 and the “Tumor Weight D14” value ([5]; 5 mg/kg i.v. Q7DX5) was “D14: 567 ± 77”. For the same compound, the MTD at 60 days ([6]; Q 7D × 5, tumor bearing mice) was 4 mg/kg, the “Repeat Dose MTD, doxorubicin equivalent dose (in parentheses)” value ([7]; Q 7D × 5) was 4 (4) mg/kg and the “RD-MTD as total exposure after 5 doses” value ([7]; total of 5 doses) was 20 mg/kg doxorubicin equivalent. For the same compound, the IC50 (Parental CHO cells; CHO, Tables 25, 26, read-out: IC50 Parental CHO) was 510 nM, the IC50 (Parental CHO cells; CHO cells, average, read-out: average IC50 in CHO cells) was 570 nM and the “Tumor Growth Inhibition (% over control)” value ([8]; Dose 5 mg/kg, Q7DX5) was 32.5%. For the same compound, the “Tumor Weight (mg) D14” value ([8]; Dose 5 mg/kg, Q7DX5) was “D14: 567 ± 77 (n = 6) mg” and the “Toxicity (Weight Loss >25%)” value ([8]; male, NCr nude, mouse, in vivo, 5 mg/kg, 60 days) was 4/6.

For CC[C@H](C)[C@H](NC(=O)CCC(=O)O)C(=O)N[C@@H](C)C(=O)N[C@@H](CC(C)C)C(=O)N[C@H]1C[C@H](O[C@H]2C[C@](O)(C(=O)CO)Cc3c(O)c4c(c(O)c32)C(=O)c2c(OC)cccc2C4=O)O[C@@H](C)[C@H]1O [Suc-Ile-Ala-Leu-Dox], the “hydrolyzing activity (protein specific activity)” value (“hydrolyzing activity” for short) [9] was “no”, the “hydrolyzing activity” value [10] was “highest” and the MTD [11] was at least 66 mg/kg. For the same compound, the “single-dose MTD, fold higher than doxorubicin alone” value (normal mice) was “at least 16 fold”, the “28-day single-dose Maximum Tolerated Dose (MTD)” value (normal mice; intravenous bolus, normal mice) was over 117 mg/kg and the hydrolysis by homogenate (PC-3 cell homogenate) was “not”. For the same compound, the “hydrolyzing activity” value (LNCaP cell homogenate; LNCaP cell homogenate with 1 μM phosphoramidon) was “inhibited by phosphoramidon” and the “hydrolyzing activity” value (LNCaP cell homogenate; LNCaP cell homogenate, 12.5 μg/mL, up to 1 hr, 37° C., pH 7.2) was “greatest”.

With CC[C@H](C)[C@H](NC(=O)CCNC(=O)CCC(=O)O)C(=O)N[C@@H](C)C(=O)N[C@@H](CC(C)C)C(=O)N[C@H]1C[C@H](O[C@H]2C[C@](O)(C(=O)CO)Cc3c(O)c4c(c(O)c32)C(=O)c2c(OC)cccc2C4=O)O[C@@H](C)[C@H]1O [Suc-βAla-Ile-Ala-Leu-Dox] the “Ratio Suc-β-Ala-Ile-Ala-Leu/Dox” value ([2]; DB4, ratio of IC50) was 14, the “Ratio Suc-β-Ala-Ile-Ala-Leu/Dox” value ([4]; Clone #7, ratio of IC50) was 17 and the MTD ([6]; total of 5 doses, read-out: RD-MTD as total exposure after 5 doses) was about 150 mg/kg. The “animals terminated due to signs of toxicity” value ([7]; 68 mg/kg Q5DX5, groups of ten) was “Two”, the MTD [11] was 40 mg/kg and the “animals euthanized due to treatment-related toxicity” value (normal mice; 100 mg/kg, Day 21, groups of five) was “two”. The “animals euthanized due to treatment-related toxicity” value (normal mice; 125 mg/kg, Day 14, groups of five) was “four”, the “single-dose MTD, fold higher than doxorubicin alone” value (normal mice) was “approximately 10 fold” and the “Ratio Suc-β-Ala-Ile-Ala-Leu/Dox” value (Parental CHO cells) was 49. The “Ratio Suc-β-Ala-Ile-Ala-Leu/Dox” value (Parental CHO cells; listed as Suc-β-Ala-Ile-Ala-Leu) was 96.

For COc1cccc2c1C(=O)c1c(O)c3c(c(O)c1C2=O)C[C@@](O)(C(=O)CO)C[C@@H]3O[C@H]1C[C@H](NC(=O)[C@H](CC(C)C)NC(=O)[C@H](C)NC(=O)[C@H](CC(C)C)NC(=O)CCNC(=O)CCC(=O)O)[C@H](O)[C@H](C)O1 [Suc-βAla-Leu-Ala-Leu-Dox], the “mean tumor weight of all mice when terminated” value ([5]; 59 mg/kg Q7DX5) was 232 mg, the “Toxic Endpt.” value ([5]; 59 mg/kg Q7DX5, over 25% weight loss) was 7 of 7 and 7 and the “Cancer Endpt.” value ([5]; 59 mg/kg Q7DX5) was 0. For the same compound, the “% Tumor Growth Inhibition D14” value ([5]; 59 mg/kg i.v. Q7DX5) was “D14: 53 ± 15 %”, the “% Tumor Growth Inhibition D21” value ([5]; 59 mg/kg i.v. Q7DX5) was “D21: 66 ± 15 %” and the “Survivor (day 60)” value ([5]; 59 mg/kg i.v. Q7DX5) was 0. For the same compound, the “Tumor Weight D14” value ([5]; 59 mg/kg i.v. Q7DX5) was “D14: 391 ± 70”, the “Tumor Weight D21” value ([5]; 59 mg/kg i.v. Q7DX5) was “D21: 318 ± 67” and the “Tumor Growth Inhibition (% over control) D14” value [8, 13] was “D14: 53.4** %”. The “Tumor Growth Inhibition (% over control) D21” value [8, 13] was “D21: 66.2** %”, the “Tumor Weight (mg) D14” value [8, 13] was “D14: 391 ± 70 (n = 7) mg” and the “Tumor Weight (mg) D21” value [8, 13] was “D21: 318 ± 67 (n = 7) mg”. The “Toxicity (Weight Loss >25%)” value ([8]; Dose 75 mg/kg (Table 19), Q7DX5, mice affected/total) was 7/7, the “Plasma AUC0-6 hr of AL-Dox or AG-Dox*” value [12] was 3.2 µM·h and the “Plasma AUC0-6 hr of L-Dox or G-Dox*” value [12] was 40 µM·h.
